According to patent publication US11400063B2, “Early administration of low-dose colchicine after myocardial infarction” (INSTITUT DE CARDIOLOGIE DE MONTREAL, priority 2019, dated 2022):

Test system: patients with CAD
Test: Meta-analysis of RCTs of colchicine for secondary cardiovascular prevention (pooled)
Format: in vivo, human
Description: Medline (PUBMED), EMBASE, and Cochrane central were searched to identify RCTs comparing colchicine to placebo or no colchicine for secondary cardiovascular prevention (inception to Sep. 1, 2020). To maximized sensitivity, citation chasing was performed in Google Scholar, Scopus, and Web of Science. Secondary prevention was defined as patients with clinically manifest or established CAD. Query terms included “colchicine”, “coronary artery disease”, “acute coronary syndrome”, “myocardial infarction”, “cardiovascular disease”, “atherosclerosis”, and “secondary prevention”, either separately or in combination.
RCTs that met the following criteria were included in the meta-analysis: 1) compared daily use of low-dose (0.5 mg) colchicine to placebo or no colchicine for secondary cardiovascular prevention; 2) the study reported at least one of the following outcomes: cardiovascular death, MI, stroke, cardiac arrest, or urgent coronary revascularization; 3) other than the trial medication, patients in both arms were treated in accordance to guideline directed medical therapy; 4) the minimum follow-up was at least 1 year; and 5) trials were published in a peer-reviewed scientific journal. Review articles, editorials, meta-analyses, observational studies, and published abstracts were excluded from the present meta-analysis.
Using standardized forms, data on study characteristics, patient characteristics, and outcomes were extracted on the intent-to-treat population independently by two reviewers from each eligible study. The Cochrane Collaboration risk-of-bias tool for randomized trials was used to evaluate study quality. The meta-analysis was conducted in accordance to the Preferred Reporting Items for Systematic Reviews and Meta-Analyses (PRISMA) guidelines.
The primary efficacy endpoint was a composite of cardiovascular death, MI, ischemic stroke, and urgent coronary revascularization. Secondary efficacy endpoints consisted of the components of the primary endpoint, composite of cardiovascular death, MI, and ischemic stroke, as well as deep vein thrombosis or pulmonary embolus, and atrial fibrillation (AF). To maximize consistency in pooling efficacy endpoints among trials, the primary and secondary composite efficacy and stroke endpoints in COLCOT were modified to meet the definition of primary and stroke endpoints of the LoDoCo2 trial. Therefore, adjudicated events of resuscitated cardiac arrest and non-ischemic stroke in COLCOT were excluded from the pooled primary endpoint. The component endpoint of stroke was also restricted to include only ischemic strokes. Incidence rates and hazards ratios (HRs) were calculated for the new primary composite endpoint and ischemic stroke endpoint using individual patient data from COLCOT.
Safety outcomes were limited to serious adverse events (SAEs) and included all-cause and non-cardiovascular mortality, hospitalization for gastrointestinal event, infection, and pneumonia, as well as diagnosis of cancer. Incidence of SAEs were recalculated for COLCOT using the intent-to-treat population.
The DerSimonian and Laird random-effects model was used to calculate the pooled HR and corresponding 95% confidence intervals (CI) for primary and secondary endpoints in the overall trial and in subgroup analyses of the primary endpoint. For safety outcomes, the DerSimonian and Laird random-effects model was used to compute risk ratios (RR) and corresponding 95% CIs. Heterogeneity was evaluated with the Higgins I^2 statistic. I^2 values of <25%, 25-75%, and >75% were considered to indicate low, moderate, and high degrees of heterogeneity, respectively. In subgroup analyses, the Qb statistic was calculated to determine inconsistency and variability in the treatment effect between strata. Publication and small study bias were assessed with the Egger's regression test and visually by asymmetry in funnel plots. […]

[1] = colchicine vs placebo or no colchicine

With `COc1cc2c(c(OC)c1OC)-c1ccc(OC)c(=O)cc1[C@@H](NC(C)=O)CC2` [Colchicine, colchicine] the “AF diagnoses and AF episodes, pooled HR” value [1] was 0.86, the “MIs, pooled HR” value [1] was 0.62 and the “all-cause mortality, pooled RR” value [1] was 1.04. For the same compound, the “ischemic strokes, pooled HR” value [1] was 0.38, the “non-cardiovascular mortality, pooled RR” value [1] was 1.38 and the “urgent coronary revascularization, pooled HR” value [1] was 0.58. The “primary composite endpoint (cardiovascular mortality, MI, ischemic stroke, urgent coronary revascularization), pooled HR” value (colchicine vs placebo or no colchicine, random-effects model) was 0.68, the “cardiovascular mortality, difference between arms” value (pooled RCTs) was “no statistically significant difference” and the “reduction in the incidence of major cardiovascular events” value (pooled RCTs) was 32%. The “risk reduction for MIs” value (pooling HRs from the RCTs) was 38%, the “risk reduction for ischemic strokes” value (pooling HRs from the RCTs) was 62% and the “risk reduction for urgent coronary revascularization” value (pooling HRs from the RCTs) was 44%.
